Reference: ChEMBL document CHEMBL1201862, “PubChem BioAssay data set” (2004)
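Five compound concentrations were applied to cells in 96-well plates for 48 hours; endpoints were derived by simple linear interpolation of the resulting dose-response curve. GI50 = concentration required for 50% inhibition of growth.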 Calls of active or inactive are those of the source. Rule as the data show it: active = GI50 up to about 1.1 µM and inactive = higher.

What was measured:
Assay in all cases: inhibition of tumour cell growth, NCI panel, 48 h
MOLT-4 = system: MOLT-4
HOP-92 = system: HOP-92
UACC-257 = system: UACC-257
SK-OV-3 = system: SK-OV-3
HL-60 = system: HL-60
SNB-19 = system: SNB-19
NCI-H522 = system: NCI-H522
M14 = system: M14
SK-MEL-5 = system: SK-MEL-5
IGROV-1 = system: IGROV-1
SN12C = system: SN12C
HCT-15 = system: HCT-15
RXF 393 = system: RXF 393
HOP-62 = system: HOP-62
OVCAR-8 = system: OVCAR-8
786-0 = system: 786-0
SR = system: SR

Structure (SMILES) | GI50 (MOLT-4) | GI50 (HOP-92) | GI50 (UACC-257) | GI50 (SK-OV-3) | GI50 (HL-60) | GI50 (SNB-19) | GI50 (NCI-H522) | GI50 (M14) | GI50 (SK-MEL-5) | GI50 (IGROV-1) | GI50 (SN12C) | GI50 (HCT-15) [µM] | GI50 (RXF 393) | GI50 (HOP-62) | GI50 (OVCAR-8) | GI50 (786-0) | GI50 (SR)
C=CCN(N=O)C(=O)NCCCCC(NC(C)=O)C(=O)NCc1ccccc1 (stereo not given) | > 100 µM (inactive) | > 100 µM (inactive) | > 100 µM (inactive) | > 100 µM (inactive) | > 100 µM (inactive) | > 100 µM (inactive) | > 100 µM (inactive) | > 100 µM (inactive) | > 100 µM (inactive) | > 100 µM (inactive) | > 100 µM (inactive) | > 100 | > 100 µM (inactive) | > 100 µM (inactive) | > 100 µM (inactive) | > 100 µM (inactive) | 
O=C1C(c2ccc(Br)cc2)=[N+]([O-])c2ccccc21 | 4.79 µM (inactive) | 7.21 µM (inactive) | 11.3 µM (inactive) | 55.1 µM (inactive) | 2.14 µM (inactive) | 21 µM (inactive) | 2.45 µM (inactive) | 16.3 µM (inactive) | 9.55 µM (inactive) | 17.4 µM (inactive) | 15.5 µM (inactive) | 5.97 | 16.9 µM (inactive) | 27 µM (inactive) | 10.2 µM (inactive) | 17.1 µM (inactive) | 
O=C1CCC(=O)N1Sc1ccccc1 | > 100 µM (inactive) | > 100 µM (inactive) | > 100 µM (inactive) | > 100 µM (inactive) | > 100 µM (inactive) | > 100 µM (inactive) | > 100 µM (inactive) | > 100 µM (inactive) | > 100 µM (inactive) | > 100 µM (inactive) | > 100 µM (inactive) | > 100 | > 100 µM (inactive) | > 100 µM (inactive) | > 100 µM (inactive) | > 100 µM (inactive) | 
CC(=O)/C=C1/c2ccccc2N(C(C)=O)C1O (stereo not given) | > 100 µM (inactive) | > 100 µM (inactive) | > 100 µM (inactive) | > 100 µM (inactive) | > 100 µM (inactive) | > 100 µM (inactive) |  | > 100 µM (inactive) |  | > 100 µM (inactive) | > 100 µM (inactive) | > 100 | > 100 µM (inactive) | > 100 µM (inactive) | > 100 µM (inactive) | > 100 µM (inactive) | > 100 µM (inactive)
CC(C)c1cccc(C(C)C)c1NC(=O)C(=O)CC(=O)CC(c1ccccc1)c1c(O)oc2ccccc2c1=O (stereo not given) | > 100 µM (inactive) | > 100 µM (inactive) | > 100 µM (inactive) | > 100 µM (inactive) | > 100 µM (inactive) | > 100 µM (inactive) | > 100 µM (inactive) | > 100 µM (inactive) | > 100 µM (inactive) | > 100 µM (inactive) | > 100 µM (inactive) |  | > 100 µM (inactive) | > 100 µM (inactive) | > 100 µM (inactive) | > 100 µM (inactive) | > 100 µM (inactive)
O=c1nc2occc2cn1C1CC(O)C(CO)O1 (stereo not given) | > 100 µM (inactive) | > 100 µM (inactive) | > 100 µM (inactive) | > 100 µM (inactive) | > 100 µM (inactive) | > 100 µM (inactive) |  | > 100 µM (inactive) | > 100 µM (inactive) | > 100 µM (inactive) | > 100 µM (inactive) | > 100 | > 100 µM (inactive) | > 100 µM (inactive) | > 100 µM (inactive) | > 100 µM (inactive) | > 100 µM (inactive)
COc1ccc(C2=C(Cl)c3cc(OC)c(OC)cc3C2OC)cc1OC (stereo not given) | > 100 µM (inactive) | > 100 µM (inactive) | > 100 µM (inactive) |  | 8.11 µM (inactive) | > 100 µM (inactive) | 3.25 µM (inactive) | > 100 µM (inactive) | > 100 µM (inactive) | > 100 µM (inactive) | > 100 µM (inactive) | 56.9 | > 100 µM (inactive) | > 100 µM (inactive) | > 100 µM (inactive) | 11.2 µM (inactive) | 
Cc1[nH]c2cc([N+](=O)[O-])ccc2c1[N+](=O)[O-] | 19.5 µM (inactive) | 3.9 µM (inactive) | 17 µM (inactive) |  | 20.6 µM (inactive) | 18.7 µM (inactive) | 13.3 µM (inactive) | 19.5 µM (inactive) | 14 µM (inactive) | 26.2 µM (inactive) | 25.6 µM (inactive) |  | 13.6 µM (inactive) | 7.28 µM (inactive) | 25.8 µM (inactive) | 29 µM (inactive) | 
CCCCN[C@H]1C2C3CC4C5CC(C42)C1(C)C53 (stereo not given in full) | > 100 µM (inactive) | > 100 µM (inactive) | > 100 µM (inactive) | > 100 µM (inactive) | > 100 µM (inactive) | > 100 µM (inactive) | > 100 µM (inactive) | > 100 µM (inactive) | > 100 µM (inactive) | > 100 µM (inactive) | > 100 µM (inactive) | > 100 | > 100 µM (inactive) | > 100 µM (inactive) |  | > 100 µM (inactive) | > 100 µM (inactive)
